Results published in publication PMC7032088 (Asian Journal of Pharmaceutical Sciences, 2017).

System: A549 cells
Assay: Cell viability
Conditions: 24 h, 0.0005–0.1 mg/ml

Structure (SMILES): CC(C(=O)O)c1cccc(C(=O)c2ccccc2)c1 (stereo not shown) [Free KTP, Ketoprofen]
- in vitro cytotoxicity (MTT): did not show significant cytotoxicity
